Several values for one entry are separate records, joined by “and”; a condition that tells them apart may be missing. Equal values may be shown once. Toxic doses and inconclusive results are not listed.
Tested on: L1210 leukemia ip in BDF1 mice, survival T/C
Test: NCI In Vivo Anticancer Drug Screen. Data for tumor model L1210 Leukemia (intraperitoneal) in B6D2F1 (BDF1) mice
Conditions: higher = longer survival
Summary of the method: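 Tumor cells were implanted, animals were treated, and survival was followed. The result divides the treated measurement by the vehicle-control measurement.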

[1] = endpoint: mean survival time, dose: 100.0 mg/kg/injection, schedule: Q01DX009 (ip), vehicle: Klucel (hydroxypropylcellulose) (HPC)
[2] = endpoint: mean survival time, dose: 200.0 mg/kg/injection, schedule: Q01DX009 (ip), vehicle: Klucel (hydroxypropylcellulose) (HPC)

CC1=C(C)CC2C(=O)c3c(O)ccc(O)c3C(=O)C2C1 (centres undefined)
T/C (endpoint: mean survival time, dose: 100.0 mg/kg/injection, schedule: Q04DX002 (ip), vehicle: saline with Tween-80): 91 % of control | T/C (endpoint: mean survival time, dose: 200.0 mg/kg/injection, schedule: Q04DX002 (ip), vehicle: saline with Tween-80): 95 % of control | T/C (endpoint: mean survival time, dose: 400.0 mg/kg/injection, schedule: Q04DX002 (ip), vehicle: saline with Tween-80): 91 % of control

COc1cccc(CC#N)c1
T/C (endpoint: mean survival time, dose: 12.5 mg/kg/injection, schedule: Q01DX001 (ip), vehicle: saline with Tween-80): 106 % of control | T/C (endpoint: mean survival time, dose: 25.0 mg/kg/injection, schedule: Q01DX001 (ip), vehicle: saline with Tween-80): 93 % of control | T/C (endpoint: mean survival time, dose: 50.0 mg/kg/injection, schedule: Q01DX001 (ip), vehicle: saline with Tween-80): 97 % of control

COC(=O)Nc1nc2ccc(C(=O)c3cccs3)cc2[nH]1
T/C (endpoint: mean survival time, dose: 10.0 mg/kg/injection, schedule: Q01DX009 (ip), vehicle: saline with Tween-80): 102 % of control | T/C (endpoint: mean survival time, dose: 10.0 mg/kg/injection, schedule: Q04DX003 (ip), vehicle: Klucel (hydroxypropylcellulose) (HPC)): 98 % of control | T/C (endpoint: mean survival time, dose: 20.0 mg/kg/injection, schedule: Q01DX009 (ip), vehicle: saline with Tween-80): 118 % of control | T/C (endpoint: mean survival time, dose: 20.0 mg/kg/injection, schedule: Q04DX003 (ip), vehicle: Klucel (hydroxypropylcellulose) (HPC)): 101 % of control | T/C (endpoint: mean survival time, dose: 40.0 mg/kg/injection, schedule: Q04DX003 (ip), vehicle: Klucel (hydroxypropylcellulose) (HPC)): 107 % of control | T/C (endpoint: mean survival time, dose: 50.0 mg/kg/injection, schedule: Q04DX003 (ip), vehicle: Klucel (hydroxypropylcellulose) (HPC)): 108 % of control and 111 % of control | T/C (endpoint: mean survival time, dose: 50.0 mg/kg/injection, schedule: Q04DX003 (ip), vehicle: saline with Tween-80): 111 % of control | T/C (endpoint: mean survival time, dose: 70.0 mg/kg/injection, schedule: Q04DX003 (ip), vehicle: other): 157 % of control | T/C (endpoint: mean survival time, dose: 75.0 mg/kg/injection, schedule: Q04DX003 (ip), vehicle: Klucel (hydroxypropylcellulose) (HPC)): 111 % of control and 121 % of control | T/C (endpoint: mean survival time, dose: 75.0 mg/kg/injection, schedule: Q04DX003 (ip), vehicle: other): 117 % of control and 183 % of control and 210 % of control | T/C (endpoint: mean survival time, dose: 80.0 mg/kg/injection, schedule: Q04DX003 (ip), vehicle: Klucel (hydroxypropylcellulose) (HPC)): 94 % of control | T/C (endpoint: mean survival time, dose: 80.0 mg/kg/injection, schedule: Q04DX003 (ip), vehicle: other): 153 % of control | T/C (endpoint: mean survival time, dose: 100.0 mg/kg/injection, schedule: Q01DX009 (oral), vehicle: saline with Tween-80): 94 % of control | T/C (endpoint: mean survival time, dose: 100.0 mg/kg/injection, schedule: Q04DX003 (ip), vehicle: Klucel (hydroxypropylcellulose) (HPC)): 115 % of control | T/C (endpoint: mean survival time, dose: 100.0 mg/kg/injection, schedule: Q04DX003 (ip), vehicle: other): 114 % of control and 115 % of control and 89 % of control | T/C (endpoint: mean survival time, dose: 100.0 mg/kg/injection, schedule: Q04DX003 (ip), vehicle: saline with Tween-80): 155 % of control and 170 % of control | T/C (endpoint: mean survival time, dose: 150.0 mg/kg/injection, schedule: Q04DX003 (ip), vehicle: other): 104 % of control | T/C (endpoint: mean survival time, dose: 160.0 mg/kg/injection, schedule: Q04DX003 (ip), vehicle: Klucel (hydroxypropylcellulose) (HPC)): 113 % of control | T/C (endpoint: mean survival time, dose: 200.0 mg/kg/injection, schedule: Q01DX009 (oral), vehicle: saline with Tween-80): 96 % of control | T/C (endpoint: mean survival time, dose: 200.0 mg/kg/injection, schedule: Q04DX003 (oral), vehicle: saline with Tween-80): 104 % of control | T/C (endpoint: mean survival time, dose: 400.0 mg/kg/injection, schedule: Q01DX009 (oral), vehicle: saline with Tween-80): 100 % of control | T/C (endpoint: mean survival time, dose: 400.0 mg/kg/injection, schedule: Q04DX003 (oral), vehicle: saline with Tween-80): 97 % of control | T/C (endpoint: mean survival time, dose: 600.0 mg/kg/injection, schedule: Q04DX003 (oral), vehicle: saline with Tween-80): 104 % of control | T/C (endpoint: mean survival time, dose: 800.0 mg/kg/injection, schedule: Q04DX003 (oral), vehicle: saline with Tween-80): 89 % of control | T/C (endpoint: mean survival time, dose: 1600.0 mg/kg/injection, schedule: Q04DX003 (oral), vehicle: saline with Tween-80): 104 % of control | T/C (endpoint: median survival time, dose: 5.0 mg/kg/injection, schedule: Q01DX009 (ip), vehicle: other): 101 % of control | T/C (endpoint: median survival time, dose: 7.5 mg/kg/injection, schedule: Q03HX016 (ip), vehicle: other): 158 % of control | T/C (endpoint: median survival time, dose: 7.5 mg/kg/injection, schedule: Q03HX024 (ip), vehicle: other): 164 % of control | T/C (endpoint: median survival time, dose: 10.0 mg/kg/injection, schedule: Q01DX009 (ip), vehicle: other): 117 % of control and 120 % of control | T/C (endpoint: median survival time, dose: 10.0 mg/kg/injection, schedule: Q03HX016 (ip), vehicle: other): 158 % of control | T/C (endpoint: median survival time, dose: 15.0 mg/kg/injection, schedule: Q03HX008 (ip), vehicle: other): 177 % of control | T/C (endpoint: median survival time, dose: 15.0 mg/kg/injection, schedule: Q03HX024 (ip), vehicle: other): 88 % of control | T/C (endpoint: median survival time, dose: 20.0 mg/kg/injection, schedule: Q01DX005 (ip), vehicle: other): 151 % of control | T/C (endpoint: median survival time, dose: 20.0 mg/kg/injection, schedule: Q01DX009 (ip), vehicle: other): 121 % of control | T/C (endpoint: median survival time, dose: 20.0 mg/kg/injection, schedule: Q08HX009 (ip), vehicle: other): 119 % of control | T/C (endpoint: median survival time, dose: 30.0 mg/kg/injection, schedule: Q01DX005 (ip), vehicle: other): 153 % of control | T/C (endpoint: median survival time, dose: 30.0 mg/kg/injection, schedule: Q01DX009 (ip), vehicle: other): 157 % of control | T/C (endpoint: median survival time, dose: 35.0 mg/kg/injection, schedule: Q04DX003 (ip), vehicle: Klucel (hydroxypropylcellulose) (HPC)): 119 % of control | T/C (endpoint: median survival time, dose: 35.0 mg/kg/injection, schedule: Q04DX003 (ip), vehicle: other): 123 % of control | T/C (endpoint: median survival time, dose: 40.0 mg/kg/injection, schedule: Q04DX003 (ip), vehicle: other): 104 % of control | T/C (endpoint: median survival time, dose: 50.0 mg/kg/injection, schedule: Q01DX005 (ip), vehicle: other): 86 % of control | T/C (endpoint: median survival time, dose: 50.0 mg/kg/injection, schedule: Q01DX009 (ip), vehicle: other): 103 % of control | T/C (endpoint: median survival time, dose: 50.0 mg/kg/injection, schedule: Q04DX003 (ip), vehicle: Klucel (hydroxypropylcellulose) (HPC)): 119 % of control | T/C (endpoint: median survival time, dose: 70.0 mg/kg/injection, schedule: Q04DX003 (ip), vehicle: Klucel (hydroxypropylcellulose) (HPC)): 119 % of control | T/C (endpoint: median survival time, dose: 75.0 mg/kg/injection, schedule: Q04DX003 (oral), vehicle: other): 101 % of control | T/C (endpoint: median survival time, dose: 80.0 mg/kg/injection, schedule: Q01DX001 (ip), vehicle: other): 157 % of control | T/C (endpoint: median survival time, dose: 80.0 mg/kg/injection, schedule: Q08DX002 (ip), vehicle: other): 182 % of control | T/C (endpoint: median survival time, dose: 90.0 mg/kg/injection, schedule: Q04DX003 (ip), vehicle: other): 167 % of control | T/C (endpoint: median survival time, dose: 100.0 mg/kg/injection, schedule: Q01DX001 (ip), vehicle: other): 151 % of control | T/C (endpoint: median survival time, dose: 100.0 mg/kg/injection, schedule: Q01DX009 (oral), vehicle: other): 102 % of control | T/C (endpoint: median survival time, dose: 100.0 mg/kg/injection, schedule: Q04DX003 (iv), vehicle: other): 101 % of control | T/C (endpoint: median survival time, dose: 130.0 mg/kg/injection, schedule: Q01DX001 (ip), vehicle: other): 155 % of control | T/C (endpoint: median survival time, dose: 140.0 mg/kg/injection, schedule: Q08DX002 (ip), vehicle: other): 112 % of control | T/C (endpoint: median survival time, dose: 150.0 mg/kg/injection, schedule: Q04DX003 (oral), vehicle: other): 119 % of control | T/C (endpoint: median survival time, dose: 160.0 mg/kg/injection, schedule: Q08DX002 (ip), vehicle: other): 153 % of control | T/C (endpoint: median survival time, dose: 200.0 mg/kg/injection, schedule: Q01DX009 (oral), vehicle: other): 103 % of control | T/C (endpoint: median survival time, dose: 300.0 mg/kg/injection, schedule: Q01DX009 (oral), vehicle: other): 109 % of control | T/C (endpoint: median survival time, dose: 300.0 mg/kg/injection, schedule: Q04DX003 (oral), vehicle: other): 98 % of control | T/C (endpoint: median survival time, dose: 400.0 mg/kg/injection, schedule: Q01DX009 (oral), vehicle: other): 108 % of control | T/C (endpoint: median survival time, dose: 400.0 mg/kg/injection, schedule: Q04DX003 (oral), vehicle: other): 102 % of control | T/C (endpoint: median survival time, dose: 500.0 mg/kg/injection, schedule: Q04DX003 (oral), vehicle: other): 97 % of control | T/C (endpoint: median survival time, dose: 600.0 mg/kg/injection, schedule: Q04DX003 (oral), vehicle: other): 104 % of control

CCOC(=O)c1ccccc1N=Nc1cc(OC)c(N)cc1OC
T/C (endpoint: mean survival time, dose: 5.0 mg/kg/injection, schedule: Q01DX001 (ip), vehicle: other): 101 % of control | T/C (endpoint: mean survival time, dose: 10.0 mg/kg/injection, schedule: Q01DX001 (ip), vehicle: other): 111 % of control | T/C (endpoint: mean survival time, dose: 20.0 mg/kg/injection, schedule: Q01DX001 (ip), vehicle: other): 114 % of control

COc1cc(C=O)ccc1OC(=O)Nc1cccc(C(C)=O)c1
T/C [1]: 96 % of control | T/C [2]: 92 % of control

CC(=O)NC1CCc2ccccc21 (centres undefined)
T/C (endpoint: mean survival time, dose: 50.0 mg/kg/injection, schedule: Q04DX002 (ip), vehicle: Klucel (hydroxypropylcellulose) (HPC)): 102 % of control | T/C (endpoint: mean survival time, dose: 100.0 mg/kg/injection, schedule: Q04DX002 (ip), vehicle: Klucel (hydroxypropylcellulose) (HPC)): 105 % of control | T/C (endpoint: mean survival time, dose: 200.0 mg/kg/injection, schedule: Q04DX002 (ip), vehicle: Klucel (hydroxypropylcellulose) (HPC)): 118 % of control

COc1ccc(CCBr)cc1
T/C [1]: 97 % of control | T/C [2]: 97 % of control | T/C (endpoint: mean survival time, dose: 400.0 mg/kg/injection, schedule: Q01DX009 (ip), vehicle: Klucel (hydroxypropylcellulose) (HPC)): 95 % of control

Source: PubChem BioAssay AID248 (DTP/NCI, 2004)
